From paper PMC5459853, “Cathepsin S inhibition combines control of systemic and peripheral pathomechanisms of autoimmune tissue injury” (Scientific Reports, 2017)

Columns and labels:
Human Cat-S = Human Cat-S (Homo sapiens, UniProt P25774); assay: Tight-binding kinetic analysis, Z-Phe-Arg-AMC hydrolysis, Morrison equation; assay type: biochemical; settings: 10 µM Z-Phe-Arg-AMC (= KM), 10 nM Cat-S, pH 6
Procedure: RO5459072 was provided by F. Hoffmann-La Roche, Ltd., Basel, Switzerland. It is a competitive inhibitor of the active site of Cat-S and its nitrile function allows covalent reversible inhibition of Cat-S. The synthesis of RO5459072 has been described in WO 2010121918 and WO 2013068434. Recombinant cathepsins were produced in-house or were purchased from commercial vendors. Initial enzymatic assays to determine isoform-selectivity in vitro were performed as previously described, [23]. […] For this the Cat-S-dependent hydrolysis of the fluorogenic substrate Z-Phe-Arg-AMC (Sigma Aldrich) was followed at various inhibitor concentrations. The active fraction of Cat-S was detemined as 70% with a HPLC assay measuring modification of Cat-S with the covalent inhibitor LHVS. […] All kinetic measurements were performad on a SFM-3000 stopped-flow instrument (Bio-Logic Science Instruments) and data were analyzed with GraphPad Prism v5. […]
active Cat-S converged to [E]0 = 6.9 nM). […] (E) Pharmacodynamics of R05459072 was determined in C57Bl6 mice with increasing amounts of compound as single dose. […]
Supplementary figure 3. […] Plasma levels of IgG1 (A), IgG2a (B), and IgG2b (C) were determined by ELISA at different time points from the initiation (week 11) to the end of treatment (week 19). Data are expressed as means ± SEM (n=8 to 10 in […]

Human Cat-F = biological target: T1, Human Cat-F (Homo sapiens, UniProt Q9UBX1); assay: Enzymatic isoform-selectivity assay, Cat-F; assay type: biochemical
T1 sequence (Q9UBX1 271-484): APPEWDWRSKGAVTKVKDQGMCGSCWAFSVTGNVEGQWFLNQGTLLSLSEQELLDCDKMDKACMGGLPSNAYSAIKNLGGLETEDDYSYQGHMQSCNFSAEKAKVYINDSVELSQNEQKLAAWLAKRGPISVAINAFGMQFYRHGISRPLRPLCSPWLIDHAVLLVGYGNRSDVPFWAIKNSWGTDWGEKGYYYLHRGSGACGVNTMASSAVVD
Procedure: RO5459072 was provided by F. Hoffmann-La Roche, Ltd., Basel, Switzerland. It is a competitive inhibitor of the active site of Cat-S and its nitrile function allows covalent reversible inhibition of Cat-S. The synthesis of RO5459072 has been described in WO 2010121918 and WO 2013068434. Recombinant cathepsins were produced in-house or were purchased from commercial vendors. Initial enzymatic assays to determine isoform-selectivity in vitro were performed as previously described, [23]. […] For this the Cat-S-dependent hydrolysis of the fluorogenic substrate Z-Phe-Arg-AMC (Sigma Aldrich) was followed at various inhibitor concentrations. The active fraction of Cat-S was detemined as 70% with a HPLC assay measuring modification of Cat-S with the covalent inhibitor LHVS. The buffer (100 mM potassium phosphate, 50 mM NaCl, 5 mM EDTA, 5 mM TCEP, pH 6) was thoroughly degassed prior to perfoming measurements to prevent oxidation of the catalytic cystein residue by dissolved oxygen. For the Ki-determination the substrate was employed at 10 µM = KM. All kinetic measurements were performad on a SFM-3000 stopped-flow instrument (Bio-Logic Science Instruments) and data were analyzed with GraphPad Prism v5.

[1] = extensive screening studies in mice, rats, monkeys and humans preceding clinical trial NCT01701985; cited from earlier work
[2] = Plasma exposure on food admix (HPLC-MS/MS) and spleen p10; assay type: in vivo, MRL-(Fas)lpr mice
Procedure: Four-week-old female MRL-(Fas)lpr mice were purchased from Harlan Winkelmann (Borchen, Germany) and kept under pathogen-free conditions in a 12 hour light and dark cycle with free access to food and water. All animal experiments were performed in accordance with the European protection laws of animal welfare, and with approval by the local government authorities Regierung von Oberbayern (reference number: 55.2.1-54-2532.2-11-12). At 11 or 15 weeks of age only mice with proteinuria (Albustix, Bayer AG, Leverkusen, Germany) were randomized into five different groups (n = 10) receiving different medicated diets: Three groups were fed with chow mixed with either 3, 10 or 30 mg/kg/day RO5459072, another group’s chow was mixed with 100 mg/kg/day mycophenolate mofetil (MMF), and one group received a standard diet (vehicle). The dose of MMF was chosen according to several studies reporting strong efficacy on SLE and lupus nephritis in MRL-(Fas)lpr mice[24]–[26]. […] At the age of 19 weeks all mice were sacrificed by cervical dislocation. Blood and urine samples were collected at different time points as indicated. In other experiments 7 week old female MRL-(Fas)lpr mice were randomized into three groups (n = 3) to receive a single intravenous injection of 10 µg sterile recombinant Cat-S and one group receiving vehicle (100 µl sterile PBS). One of the Cat-S groups was pretreated with 30 mg/kg/day RO5459072 starting one week prior to Cat-S injection; another group was pretreated with a total of four daily intra-peritoneal injections of the PAR-2 inhibitor GB83 (10 mg/kg).
Plasma samples were collected from mice during the feeding cycle on weeks 2, 4, 6 and 8 on a variable schedule of individuals after initiation of feeding with the drug-food admix on week 1. The levels in food were calculated to achieve doses of 3, 10 and 30 mg/kg/day. EDTA-treated plasma samples (29 per dose level) were frozen and subsequently analysed for the parent drug by HPLC-MS/MS. A column-trapping method (Phenonenex Luna C18 and Thermo Hypersil Gold C8 HPLC columns eluted with formic acid/water/acetonitrile mixtures on a Waters Acquity HPLC system) was used to separate the drug which was quantified using a Sciex API4000 MS/MS. The analytical range was 10–10,000 ng/ml and a stable label internal standard was used. […] All experiments were performed according to German animal protection laws and had been approved by the local government authorities.

Human Cat-S, sequence (P25774 115-331): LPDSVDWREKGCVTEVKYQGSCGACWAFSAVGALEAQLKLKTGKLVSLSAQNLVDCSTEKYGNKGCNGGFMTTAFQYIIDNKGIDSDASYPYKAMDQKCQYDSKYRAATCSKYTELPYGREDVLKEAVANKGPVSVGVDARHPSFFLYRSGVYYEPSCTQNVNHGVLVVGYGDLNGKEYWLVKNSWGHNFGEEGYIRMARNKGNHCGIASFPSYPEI

## Cn1cc(-c2ccc(S(=O)(=O)[C@@H]3C[C@@H](C(=O)NC4(C#N)CC4)N(C(=O)C4(C(F)(F)F)CC4)C3)c(C(F)(F)F)c2)cn1 [RO5459072]
Human Cat-S
  Ki: 0.066 ± 0.025 nM
Human Cat-F
  IC50: > 1000 nM
  IC50, Human Cat-F: No sub-micro molar inhibition
[1]
  drug safety signals: did not show any signals regarding drug safety
[2]; 3 mg/kg/day food admix
  mean plasma concentration (SD): 172 ± 58.4 ng/mL
[2]; 10 mg/kg/day food admix
  mean plasma concentration (SD): 648 ± 142 ng/mL
[2]; 30 mg/kg/day food admix
  mean plasma concentration (SD): 2660 ± 575 ng/mL
[2]; food admix, MRL-(Fas)lpr mice
  p10 fragment accumulation in the spleen: robust p10 fragment accumulation
[2]; mouse, plasma, oral, food admix 262 mg/kg of food, exposure dose 30 mg/kg, over 8 weeks, female MRL-(Fas)lpr mice, read-out: stable plasma levels
  concentration at 8 weeks: 400 to 600 ng/mL
